Assay results taken from patent US12077503B2, “Substituted cyclic amides and their use as herbicides” (FMC CORPORATION, priority 2015, dated 2024).

Tests used:
Format in all cases: in vivo
[1] = system: barnyardgrass (Echinochloa crus-galli); test: Test G Pre-Emergence Protocol; conditions: Echinochloa crus-galli, pre-emergence, 312 h, evaluated after 13 days; for pest or weed control at 15.625 g/ha: 15.625 g ai/ha, read-out: Barnyard grass damage rating (100=total damage to plant; 0=no damage to plant); for pest or weed control at 62.5 g/ha: 62.5 g ai/ha, 100=total damage to plant, 0=no damage to plant, read-out: plant damage rating, Barnyardgrass; for pest or weed control at 250 g/ha: 250 g ai/ha, read-out: Barnyardgrass damage rating (100=total damage to plant; 0=no damage to plant)
Method in brief: (§1)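 Herbicidal effect was rated 13 days post-application on a scale where 100 equals total damage. Spraying took place the day after sowing, using 15.625, 62.5 or 250 g/ha of compound in a 50:50 acetone/water solution with 0.5% Tween 20.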

[2] = system: redroot pigweed (Amaranthus retroflexus); test: Test G Pre-Emergence Protocol; conditions: Amaranthus retroflexus, pre-emergence, 312 h, evaluated after 13 days; for pest or weed control at 15.625 g/ha: 15.625 g ai/ha; for pest or weed control at 15.625 g/ha / pest or weed control at 250 g/ha: read-out: Pigweed, Redroot damage rating (100=total damage to plant; 0=no damage to plant); for pest or weed control at 62.5 g/ha: 62.5 g ai/ha, 100=total damage to plant, 0=no damage to plant, read-out: plant damage rating, Pigweed, Redroot; for pest or weed control at 250 g/ha: 250 g ai/ha
Method in brief: as §1

[3] = system: ivy-leaved morning glory (Ipomoea hederacea); test: Test G Pre-Emergence Protocol; conditions: Ipomoea, pre-emergence, 312 h, evaluated after 13 days; for pest or weed control at 15.625 g/ha: 15.625 g ai/ha, read-out: Morning-glory, Ivy-leaved damage rating (100=total damage to plant; 0=no damage to plant); for pest or weed control at 62.5 g/ha: 62.5 g ai/ha, 100=total damage to plant, 0=no damage to plant, read-out: plant damage rating, Morningglory, Ivy-leaved; for pest or weed control at 250 g/ha: 250 g ai/ha, read-out: Morningglory, Ivy-leaved damage rating (100=total damage to plant; 0=no damage to plant)
Method in brief: as §1

corn (Zea mays) [4] = test: Test G Pre-Emergence Protocol; conditions: Zea mays, pre-emergence, 312 h, evaluated after 13 days; for plant injury at 15.625 g/ha: 15.625 g ai/ha; for plant injury at 15.625 g/ha / plant injury at 250 g/ha: read-out: Corn damage rating (100=total damage to plant; 0=no damage to plant); for plant injury at 62.5 g/ha: 62.5 g ai/ha, 100=total damage to plant, 0=no damage to plant, read-out: plant damage rating, Corn; for plant injury at 250 g/ha: 250 g ai/ha
Method in brief: as §1

[5] = system: velvetleaf (Abutilon theophrasti); test: Test G Pre-Emergence Protocol; conditions: Abutilon theophrasti, pre-emergence, 312 h, evaluated after 13 days; for pest or weed control at 15.625 g/ha: 15.625 g ai/ha; for pest or weed control at 15.625 g/ha / pest or weed control at 250 g/ha: read-out: Velvetleaf damage rating (100=total damage to plant; 0=no damage to plant); for pest or weed control at 62.5 g/ha: 62.5 g ai/ha, 100=total damage to plant, 0=no damage to plant, read-out: plant damage rating, Velvetleaf; for pest or weed control at 250 g/ha: 250 g ai/ha
Method in brief: as §1

[6] = system: giant foxtail (Setaria faberi); test: Test G Pre-Emergence Protocol; conditions: Setaria faberi, pre-emergence, 312 h, evaluated after 13 days; for pest or weed control at 15.625 g/ha: 15.625 g ai/ha; for pest or weed control at 15.625 g/ha / pest or weed control at 250 g/ha: read-out: Foxtail, Giant damage rating (100=total damage to plant; 0=no damage to plant); for pest or weed control at 62.5 g/ha: 62.5 g ai/ha, 100=total damage to plant, 0=no damage to plant, read-out: plant damage rating, Foxtail, Giant; for pest or weed control at 250 g/ha: 250 g ai/ha
Method in brief: as §1

[7] = system: barnyardgrass (Echinochloa crus-galli); test: Test G Post-Emergence Protocol; conditions: Echinochloa crus-galli, post-emergence, 312 h; for pest or weed control at 15.625 g/ha: 15.625 g ai/ha, evaluated after 13 days (100=total damage to plant; 0=no damage to plant), read-out: Barnyardgrass damage rating; for pest or weed control at 62.5 g/ha: 62.5 g ai/ha, read-out: Barnyardgrass damage rating (100=total damage to plant; 0=no damage to plant); for pest or weed control at 62.5 g/ha / pest or weed control at 250 g/ha: evaluated after 13 days; for pest or weed control at 250 g/ha: 250 g ai/ha, read-out: damage to plant, Barnyardgrass (100=total damage to plant; 0=no damage to plant)
Method in brief: (§2)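 Seedlings grown 8 days in soil in a glasshouse (24/16 °C day/night, 14 h light, 65% humidity) were sprayed post-emergence with compound in acetone/water 50:50 plus 0.5% Tween 20 at 15.625, 62.5 or 250 g/ha. Damage was scored after 13 days on a 0–100 scale (100 = total damage).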

[8] = system: redroot pigweed (Amaranthus retroflexus); test: Test G Post-Emergence Protocol; conditions: Amaranthus retroflexus, post-emergence, 312 h; for pest or weed control at 15.625 g/ha: 15.625 g ai/ha, evaluated after 13 days (100=total damage to plant; 0=no damage to plant), read-out: Pigweed, Redroot damage rating; for pest or weed control at 62.5 g/ha: 62.5 g ai/ha, read-out: Pigweed, Redroot damage rating (100=total damage to plant; 0=no damage to plant); for pest or weed control at 62.5 g/ha / pest or weed control at 250 g/ha: evaluated after 13 days; for pest or weed control at 250 g/ha: 250 g ai/ha, read-out: damage to plant, Pigweed, Redroot (100=total damage to plant; 0=no damage to plant)
Method in brief: as §2

[9] = system: ivy-leaved morning glory (Ipomoea hederacea); test: Test G Post-Emergence Protocol; conditions: Ipomoea, post-emergence, 312 h; for pest or weed control at 15.625 g/ha: 15.625 g ai/ha, evaluated after 13 days (100=total damage to plant; 0=no damage to plant), read-out: Morningglory, Ivy-leaved damage rating; for pest or weed control at 62.5 g/ha: 62.5 g ai/ha, read-out: Morningglory, Ivy-leaved damage rating (100=total damage to plant; 0=no damage to plant); for pest or weed control at 62.5 g/ha / pest or weed control at 250 g/ha: evaluated after 13 days; for pest or weed control at 250 g/ha: 250 g ai/ha, read-out: damage to plant, Morningglory, Ivy-leaved (100=total damage to plant; 0=no damage to plant)
Method in brief: as §2

corn (Zea mays) [10] = test: Test G Post-Emergence Protocol; conditions: Zea mays, post-emergence, 312 h; for plant injury at 15.625 g/ha: 15.625 g ai/ha, evaluated after 13 days (100=total damage to plant; 0=no damage to plant), read-out: Corn damage rating; for plant injury at 62.5 g/ha: 62.5 g ai/ha, read-out: Corn damage rating (100=total damage to plant; 0=no damage to plant); for plant injury at 62.5 g/ha / plant injury at 250 g/ha: evaluated after 13 days; for plant injury at 250 g/ha: 250 g ai/ha, read-out: damage to plant, Corn (100=total damage to plant; 0=no damage to plant)
Method in brief: as §2

[11] = system: velvetleaf (Abutilon theophrasti); test: Test G Post-Emergence Protocol; conditions: Abutilon theophrasti, post-emergence, 312 h; for pest or weed control at 15.625 g/ha: 15.625 g ai/ha, evaluated after 13 days (100=total damage to plant; 0=no damage to plant), read-out: Velvetleaf damage rating; for pest or weed control at 62.5 g/ha: 62.5 g ai/ha, read-out: Velvetleaf damage rating (100=total damage to plant; 0=no damage to plant); for pest or weed control at 62.5 g/ha / pest or weed control at 250 g/ha: evaluated after 13 days; for pest or weed control at 250 g/ha: 250 g ai/ha, read-out: damage to plant, Velvetleaf (100=total damage to plant; 0=no damage to plant)
Method in brief: as §2

[12] = system: giant foxtail (Setaria faberi); test: Test G Post-Emergence Protocol; conditions: Setaria faberi, post-emergence, 312 h; for pest or weed control at 15.625 g/ha: 15.625 g ai/ha, evaluated after 13 days (100=total damage to plant; 0=no damage to plant), read-out: Foxtail, Giant damage rating; for pest or weed control at 62.5 g/ha: 62.5 g ai/ha, read-out: Foxtail, Giant damage rating (100=total damage to plant; 0=no damage to plant); for pest or weed control at 62.5 g/ha / pest or weed control at 250 g/ha: evaluated after 13 days; for pest or weed control at 250 g/ha: 250 g ai/ha, read-out: damage to plant, Foxtail, Giant (100=total damage to plant; 0=no damage to plant)
Method in brief: as §2

| Structure (SMILES) | pest or weed control at 15.625 g/ha [1] [%] | pest or weed control at 62.5 g/ha [1] [%] | pest or weed control at 250 g/ha [1] [%] | pest or weed control at 15.625 g/ha [2] [%] | pest or weed control at 62.5 g/ha [2] [%] | pest or weed control at 250 g/ha [2] [%] | pest or weed control at 15.625 g/ha [3] [%] | pest or weed control at 62.5 g/ha [3] [%] | pest or weed control at 250 g/ha [3] [%] | plant injury at 15.625 g/ha (corn (Zea mays) [4]) [%] | plant injury at 62.5 g/ha (corn (Zea mays) [4]) [%] | plant injury at 250 g/ha (corn (Zea mays) [4]) [%] | pest or weed control at 15.625 g/ha [5] [%] | pest or weed control at 62.5 g/ha [5] [%] | pest or weed control at 250 g/ha [5] [%] | pest or weed control at 15.625 g/ha [6] [%] | pest or weed control at 62.5 g/ha [6] [%] | pest or weed control at 250 g/ha [6] [%] | pest or weed control at 15.625 g/ha [7] [%] | pest or weed control at 62.5 g/ha [7] [%] | also measured |
| --- | --- | --- | --- | --- | --- | --- | --- | --- | --- | --- | --- | --- | --- | --- | --- | --- | --- | --- | --- | --- | --- |
| CN1C[C@@H](c2ccc(Cl)nc2)[C@H](C(=O)Nc2cccc(F)c2F)C1=O (racemic) [Compound 1462] | 20 | 50 | 80 | 0 | 0 | 0 | 0 | 0 | 50 | 0 | 0 | 0 | 0 | 0 | 0 | 0 | 70 | 80 | 0 | 20 | pest or weed control at 250 g/ha [7]: 30%; pest or weed control at 15.625 g/ha [8]: 0%; pest or weed control at 62.5 g/ha [8]: 0%; pest or weed control at 250 g/ha [8]: 0%; pest or weed control at 15.625 g/ha [9]: 0%; pest or weed control at 62.5 g/ha [9]: 20%; pest or weed control at 250 g/ha [9]: 10%; plant injury at 15.625 g/ha (corn (Zea mays) [10]): 0%; plant injury at 62.5 g/ha (corn (Zea mays) [10]): 0%; plant injury at 250 g/ha (corn (Zea mays) [10]): 10%; pest or weed control at 15.625 g/ha [11]: 0%; pest or weed control at 62.5 g/ha [11]: 0%; pest or weed control at 250 g/ha [11]: 0%; pest or weed control at 15.625 g/ha [12]: 0%; pest or weed control at 62.5 g/ha [12]: 50%; pest or weed control at 250 g/ha [12]: 70% |
| CN1C[C@H](c2cccc(C(F)F)c2)[C@@H](C(=O)Nc2ccccc2F)C1=O (racemic) [Compound 1464] | 80 | 90 | 90 | 0 | 0 | 0 | 0 | 30 | 70 | 0 | 50 | 80 | 0 | 0 | 0 | 80 | 90 | 90 | 20 | 20 | pest or weed control at 250 g/ha [7]: 50%; pest or weed control at 15.625 g/ha [8]: 10%; pest or weed control at 62.5 g/ha [8]: 10%; pest or weed control at 250 g/ha [8]: 30%; pest or weed control at 15.625 g/ha [9]: 10%; pest or weed control at 62.5 g/ha [9]: 20%; pest or weed control at 250 g/ha [9]: 50%; plant injury at 15.625 g/ha (corn (Zea mays) [10]): 20%; plant injury at 62.5 g/ha (corn (Zea mays) [10]): 10%; plant injury at 250 g/ha (corn (Zea mays) [10]): 80%; pest or weed control at 15.625 g/ha [11]: 10%; pest or weed control at 62.5 g/ha [11]: 0%; pest or weed control at 250 g/ha [11]: 10%; pest or weed control at 15.625 g/ha [12]: 70%; pest or weed control at 62.5 g/ha [12]: 70%; pest or weed control at 250 g/ha [12]: 70% |
| COc1c(Cl)ccc([C@H]2CNC(=O)[C@@H]2C(=O)Nc2cccc(F)n2)c1F (racemic) [Compound 1478] | 0 | 0 | 30 | 0 | 0 | 0 | 0 | 0 | 0 | 0 | 0 | 10 | 0 | 0 | 0 | 0 | 0 | 40 | 10 | 40 | pest or weed control at 250 g/ha [7]: 60%; pest or weed control at 15.625 g/ha [8]: 0%; pest or weed control at 62.5 g/ha [8]: 0%; pest or weed control at 250 g/ha [8]: 10%; pest or weed control at 15.625 g/ha [9]: 0%; pest or weed control at 62.5 g/ha [9]: 0%; pest or weed control at 250 g/ha [9]: 10%; plant injury at 15.625 g/ha (corn (Zea mays) [10]): 0%; plant injury at 62.5 g/ha (corn (Zea mays) [10]): 10%; plant injury at 250 g/ha (corn (Zea mays) [10]): 20%; pest or weed control at 15.625 g/ha [11]: 0%; pest or weed control at 62.5 g/ha [11]: 0%; pest or weed control at 250 g/ha [11]: 0%; pest or weed control at 15.625 g/ha [12]: 10%; pest or weed control at 62.5 g/ha [12]: 30%; pest or weed control at 250 g/ha [12]: 60% |
